# Read-outs that look alike come from different tables or passages of the source.
# Tested on: H.Ep-2 cell line
# Test: Cytotoxicity in vitro, cell survival by trypan blue exclusion
# Assay type: cell-based
# Settings: Homo sapiens, read-out: IC50 (dose required to give 50% cell survival)
# Procedure: Cytotoxicity in vitro. The human epidermoid carcinoma cell line H.Ep-2 was originally obtained from a metastatic nodule in the neck of a patient with a primary tumour of the larynx. it was established in tissue culture after two generations in X-irradiated, cortisone-treated rats. Immunocytochemistry has shown the cells to bind the H17E2 antibody, but not HMFGl, which was used as a negative control in these studies. Cells were cultured in RPMI 1640 tissue culture medium supplemented with 10% foetal calf serum (Gibco Ltd, Paisley, Scotland). For cell survival experiments, after harvesting with 0.02% EDTA, 5×10^5 cells were plated in quadruplicate into 25-cm^2 Falcon flasks (Becton Dickinson, N.J., USA). Twenty-four hours later the cytotoxic agent was added (either amygdalin alone, β-glucosidase alone, amygdalin plus β-glucosidase, potassium cyanide alone, amygdalin plus H17E2β-glucosidase conjugate or amygdalin plus HMFGl-β-glucosidase conjugate). After 24 h exposure, the medium containing the drug was replaced with fresh medium and the cells allowed to grow for a further 24 h before counting by haemacytometry, using trypan blue exclusion as the criterion for cell integrity.
smiles,measurement,setting,value
"N#C[C@H](O[C@@H]1O[C@H](CO[C@@H]2O[C@H](CO)[C@@H](O)[C@H](O)[C@H]2O)[C@@H](O)[C@H](O)[C@H]1O)c1ccccc1 [amygdalin, D-mandelonitrile-β-D-glucosido-6-β-D-glycoside]",IC50,"HEp-2, in the presence of 0.35 μM β-glucosidase",600 ± 300 µM
same,IC50,"HEp-2, in the presence of 3.5 μM β-glucosidase",500 ± 200 µM

# — patent publication US20020114813A1, “Compounds” (priority 1990, published 2002)
